Bounds are passed on as bounds.

For data set [1], the system named is MDA-MB-231 cells. Put plainly: Annexin V-FITC/PI flow cytometry apoptosis assay. The conditions noted are these: 0.1 nM, 48 h, control 2.17% ± 0.76%. The format is cell-based, Human. As to the method: Cell apoptosis analysis was performed according to the manufacturer’s protocol of the Annexin V-FITC Detection kit (Beyotime, Shanghai, China). […] Finally, the samples were tested by flow cytometer (BD FACSCelesta) and analyzed using FlowJo Software (Tree Star Inc., Ashland, OR, USA). The PTX-treated group was used as a positive control.
Background: Flow cytometry measures light scatter and fluorescence of single cells or particles in a stream.

The subject of data set [2] is MDA-MB-231 cells. Put plainly: Transmission electron microscopy of treated cells. The conditions noted are these: MDA-MB-231, 0.1 nM, 48 h. The format is cell-based, Human. On the procedure: Ultrathin sections were isolated, stained with uranyl acetate and lead citrate for 10 min, and finally observed through the Hitachi H-7650 transmission electron microscope (Tokyo, Japan). The PTX-treated group was used as a positive control.

The test system of data set [3] is microtubules in MDA-MB-231 cells. Put plainly: Immunofluorescence staining of microtubules (α-tubulin antibody). In kind it is cell-based, Human. The note with it: MDA-MB-231, 0.1 nM, 48 h. As to the method:
Cells were fixed with 4% paraformaldehyde for 20 min, permeabilized with 0.1%Triton X-100 for 5 min, and blocked with 1% BSA for 1.5 h. Next, cells were incubated with α-tubulin antibody (1:400 Abcam, AB52866) at 4 °C overnight, followed by the Alexa Fluor 488 conjugated goat anti-rabbit IgG secondary antibody (1:300, ZF-0511, Zhongshan Goldenbridge Biotechnology, Beijing, China). Finally, nuclei were stained with DAPI for 4 min. Stained cells were observed using a laser confocal microscope (LSM700; Zeiss, Gottingen, Germany). The PTX-treated group was used as a positive control.

Data set [4] concerns MDA-MB-231 cells. Put plainly: Cell cycle analysis (PI, flow cytometry). In kind it is cell-based, Human. The note with it: 0.1 nM, 48 h, control 8.74 ± 0.60%. As to the method: Cell cycle assay was performed using the DNA Content Quantitation Assay (Solarbio, Beijing, China). […] Then, the fixed cells were incubated with RNase A solution at 37 °C for 30 min and stained with PI in the dark for 30 min at 4 °C. The red fluorescence was detected using a flow cytometer (BD FACSCalibur) at 488 nm and analyzed by FlowJo Software (Tree Star Inc, Ashland, OR, USA). The PTX-treated group was set as a positive control.

The test system of data set [5] is MDA-MB-231 xenograft tumor tissue. Put plainly: TUNEL assay of tumor slides. The format is in vivo, Female BALB/c nude mice. The note with it: PTX-TTHA 6.87-13.73 mg/kg q3d; PTX 10 mg/kg q7d. As to the method:
The tumor slides of MDA-MB-231 xenograft mice were deparaffinized and rehydrated as per the method described above. Then, the TUNEL assay was performed according to the manufacturer’s instructions. Briefly, slides were permeabilized with proteinase K for 20 min and blocked with 3% H2O2 for 10 min. After washing, slides were incubated with Biotin labeling solution for 1 h, and the nucleus was counterstained with DAPI for 1 min. The localized red fluorescence of the apoptotic cells was visualized by fluorescence microscopy. Two experienced pathologists randomly selected 10 (×200) fields for every slide and then analyzed them. The percentage of TUNEL-positive cells among total cells was semi-quantitatively measured with the Image-J software.

The conditions of data set [6]: cited from earlier work.
The subject of another data set is MDA-MB-231. Put plainly: cells. The note with it: Homo sapiens, MDA-MB-231, 48 h.
The subject of the next data set is MCF-7. Put plainly: cells. The note with it: Homo sapiens, MCF7, 48 h.
For another data set, the system named is 4T1. Put plainly: cells. The conditions noted are these: Mus musculus, 4T1, 48 h.
A further data set can be described thus: physchem. The conditions noted are these: water.
Data set [7] can be described thus: Solubility experiment in water. The conditions noted are these: diluted to 5 mg/mL by water.
Data set [8] is described as follows: Acute-toxicity experiment, single dose via tail vein. The note with it: 20 mg/kg CrEL paclitaxel, Taxol (PTX), day 3, p < 0.001.

By IC50 is commonly meant the point on the concentration scale where inhibition reaches its midpoint. Low readings indicate greater potency in that assay, high ones weaker potency in that assay. The solubility is the dissolved amount per volume that the medium holds. Read a high solubility as a readily soluble substance. `CC(=O)O[C@H]1C(=O)[C@@]2(C)[C@H]([C@H](OC(=O)c3ccccc3)[C@]3(O)C[C@H](OC(=O)[C@H](O)[C@@H](NC(=O)c4ccccc4)c4ccccc4)C(C)=C1C3(C)C)[C@]1(OC(C)=O)CO[C@@H]1C[C@@H]2O` [PTX, Paclitaxel, reference compound]: the cell apoptosis rate with MDA-MB-231 cells [1] is 29.57% ± 3.31. For the same compound, the “morphological changes of apoptosis (TEM)” value in the data set on MDA-MB-231 cells [2] is listed as “remarkable cellular apoptosis-related characteristics were observed”. For the same compound, the “microtubule fluorescence intensity compared with the control group” value in [3] is given as “enhanced fluorescence intensity of microtubules”. In addition, the “cells in G2/M phase” value with MDA-MB-231 cells [4] came to 24.22 ± 0.70%. Besides, the “TUNEL signal of apoptotic cells in tumor tissue” value in data set [5] is “strong red fluorescent signal”. The solubility in water in data set [6] is 0.3 to 0.5 µg/mL. In addition, the IC50 worked out at 8.68 ± 0.75 nM in the data set with MDA-MB-231, 9.99 ± 0.94 nM with MCF-7 and 9.45 ± 1.34 nM in the data set with 4T1. Moreover, in “physchem”, the solubility was < 0.7 µg/mL. Also, the “appearance of sample in water (solubility by photograph)” value in data set [7] was “almost insoluble in water”. The “ALT, AST, Scr, WBC and NEUT values compared with controls” value in data set [8] is “significantly altered”.

The values are drawn from article PMC10180349 (Molecules, 2023).
